Experimental data taken from article PMC10216335, “Voltage-Gated Sodium Channel NaV1.7 Inhibitors with Potent Anticancer Activities in Medullary Thyroid Cancer Cells” (Cancers, 2023).
Where a name gives a salt, the structure may show the parent alone.

Target: T1, NaV1.7 (Rattus norvegicus, UniProt O08562)
T1 construct: gene Scn9a; rat cDNA NaV1.7 (GenBank No. U79568), transiently expressed in HEK-293 cells
Test: whole-cell patch-clamp, INa block in transfected HEK-293 cells
Type: cell-based

T1 sequence (O08562 whole entry): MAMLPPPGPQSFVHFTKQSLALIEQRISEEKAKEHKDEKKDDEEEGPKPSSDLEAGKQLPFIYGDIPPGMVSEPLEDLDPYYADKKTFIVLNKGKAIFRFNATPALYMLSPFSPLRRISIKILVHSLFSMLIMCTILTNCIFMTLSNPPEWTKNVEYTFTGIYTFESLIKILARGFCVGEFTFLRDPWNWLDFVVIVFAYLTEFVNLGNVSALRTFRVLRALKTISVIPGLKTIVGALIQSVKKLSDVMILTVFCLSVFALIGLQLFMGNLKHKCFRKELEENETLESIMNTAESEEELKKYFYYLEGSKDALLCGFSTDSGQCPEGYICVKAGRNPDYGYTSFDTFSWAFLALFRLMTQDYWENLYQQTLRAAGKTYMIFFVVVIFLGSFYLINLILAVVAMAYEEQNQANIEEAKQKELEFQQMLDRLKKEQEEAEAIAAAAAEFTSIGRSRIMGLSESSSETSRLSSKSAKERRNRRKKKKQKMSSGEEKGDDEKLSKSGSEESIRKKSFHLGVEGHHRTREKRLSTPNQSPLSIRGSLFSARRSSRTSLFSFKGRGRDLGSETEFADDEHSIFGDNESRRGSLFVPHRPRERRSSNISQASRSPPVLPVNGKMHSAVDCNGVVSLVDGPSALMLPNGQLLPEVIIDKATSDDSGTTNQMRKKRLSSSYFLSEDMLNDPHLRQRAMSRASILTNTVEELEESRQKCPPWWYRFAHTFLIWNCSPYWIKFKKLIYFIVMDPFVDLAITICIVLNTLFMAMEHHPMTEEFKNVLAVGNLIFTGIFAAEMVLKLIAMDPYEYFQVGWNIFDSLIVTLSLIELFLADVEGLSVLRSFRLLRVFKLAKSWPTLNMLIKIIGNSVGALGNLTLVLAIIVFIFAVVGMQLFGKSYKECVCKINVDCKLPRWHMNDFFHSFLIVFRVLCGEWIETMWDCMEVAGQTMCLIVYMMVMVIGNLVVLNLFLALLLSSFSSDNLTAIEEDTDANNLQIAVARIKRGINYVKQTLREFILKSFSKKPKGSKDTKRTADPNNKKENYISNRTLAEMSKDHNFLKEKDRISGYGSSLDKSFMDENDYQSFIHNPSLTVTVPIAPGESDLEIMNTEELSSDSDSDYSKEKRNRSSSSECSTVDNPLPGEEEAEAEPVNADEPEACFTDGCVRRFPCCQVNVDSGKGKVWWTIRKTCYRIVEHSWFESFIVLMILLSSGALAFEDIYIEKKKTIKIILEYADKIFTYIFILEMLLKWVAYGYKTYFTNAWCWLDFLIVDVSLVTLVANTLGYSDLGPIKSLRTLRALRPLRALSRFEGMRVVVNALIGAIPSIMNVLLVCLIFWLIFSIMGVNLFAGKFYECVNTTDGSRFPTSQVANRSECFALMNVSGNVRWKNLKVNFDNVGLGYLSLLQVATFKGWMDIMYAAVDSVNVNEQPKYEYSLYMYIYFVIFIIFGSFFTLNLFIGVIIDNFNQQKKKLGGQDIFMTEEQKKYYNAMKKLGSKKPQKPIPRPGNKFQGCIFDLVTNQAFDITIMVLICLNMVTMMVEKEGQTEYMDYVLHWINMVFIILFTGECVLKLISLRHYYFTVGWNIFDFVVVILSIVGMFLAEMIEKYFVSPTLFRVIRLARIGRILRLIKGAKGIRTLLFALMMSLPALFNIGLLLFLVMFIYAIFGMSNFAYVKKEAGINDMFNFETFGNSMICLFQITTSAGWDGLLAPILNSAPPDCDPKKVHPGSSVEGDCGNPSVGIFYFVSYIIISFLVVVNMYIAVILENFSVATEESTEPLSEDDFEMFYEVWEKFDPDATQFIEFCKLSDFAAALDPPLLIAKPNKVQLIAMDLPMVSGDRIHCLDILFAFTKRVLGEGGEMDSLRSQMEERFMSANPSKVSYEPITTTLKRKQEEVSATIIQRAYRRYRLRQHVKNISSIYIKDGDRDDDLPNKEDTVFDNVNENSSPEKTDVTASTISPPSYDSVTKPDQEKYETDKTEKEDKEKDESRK

- IC50: 3.6 µM
SMILES: c1ccc(C(CCCNCCCN2CCCCC2)c2ccccc2)cc1 [SV188, 4,4-Diphenylbutyl [3-(piperidin-1-yl)propyl]amine Hydrochloride]
